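Each compound was tested at five concentrations against cells in 96-well plates for 48 hours. The concentration for full growth arrest is given as TGI.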
Assays:
Test in all cases: DTP human tumour cell line panel, 48 h
MDA-MB-231 breast = tested on: MDA-MB-231 breast
NCI/ADR-RES ovarian = tested on: NCI/ADR-RES ovarian
T-47D breast = tested on: T-47D breast
RPMI-8226 leukemia = tested on: RPMI-8226 leukemia
MOLT-4 leukemia = tested on: MOLT-4 leukemia
SK-MEL-5 melanoma = tested on: SK-MEL-5 melanoma
UO-31 renal = tested on: UO-31 renal
DU-145 prostate = tested on: DU-145 prostate
HCT-116 colon = tested on: HCT-116 colon
BT-549 breast = tested on: BT-549 breast
UACC-62 melanoma = tested on: UACC-62 melanoma
HOP-62 NSCLC = tested on: HOP-62 NSCLC
EKVX NSCLC = tested on: EKVX NSCLC
M14 melanoma = tested on: M14 melanoma
SW-620 colon = tested on: SW-620 colon
SF-539 CNS = tested on: SF-539 CNS
SNB-19 CNS = tested on: SNB-19 CNS
OVCAR-5 ovarian = tested on: OVCAR-5 ovarian
U251 CNS = tested on: U251 CNS
HS 578T breast = tested on: HS 578T breast
OVCAR-8 ovarian = tested on: OVCAR-8 ovarian
SF-295 CNS = tested on: SF-295 CNS
CAKI-1 renal = tested on: CAKI-1 renal
OVCAR-3 ovarian = tested on: OVCAR-3 ovarian
COLO 205 colon = tested on: COLO 205 colon
SNB-75 CNS = tested on: SNB-75 CNS
OVCAR-4 ovarian = tested on: OVCAR-4 ovarian
HCT-15 colon = tested on: HCT-15 colon
MDA-MB-435 = tested on: MDA-MB-435
MDA-N = tested on: MDA-N
NCI-H23 lung = tested on: NCI-H23 lung
SN12C renal = tested on: SN12C renal
ACHN renal = tested on: ACHN renal
K-562 leukemia = tested on: K-562 leukemia
HT29 colon = tested on: HT29 colon
RXF 393 renal = tested on: RXF 393 renal
UACC-257 melanoma = tested on: UACC-257 melanoma
SK-MEL-28 melanoma = tested on: SK-MEL-28 melanoma
PC-3 prostate = tested on: PC-3 prostate
TK-10 renal = tested on: TK-10 renal
SF-268 CNS = tested on: SF-268 CNS
A549 NSCLC = tested on: A549 NSCLC
MCF7 breast = tested on: MCF7 breast
NCI-H460 lung = tested on: NCI-H460 lung
SK-OV-3 ovarian = tested on: SK-OV-3 ovarian
786-0 renal = tested on: 786-0 renal
A498 renal = tested on: A498 renal
KM12 colon = tested on: KM12 colon
SK-MEL-2 melanoma = tested on: SK-MEL-2 melanoma

SMILES: CCc1nn(S(=O)(=O)c2ccc(C)cc2)c2c1CS(=O)(=O)CC2
- TGI (MDA-MB-231 breast): > 100 µM
- TGI (NCI/ADR-RES ovarian): > 100 µM
- TGI (T-47D breast): > 100 µM
- TGI (RPMI-8226 leukemia): > 100 µM
- TGI (MOLT-4 leukemia): > 100 µM
- TGI (SK-MEL-5 melanoma): > 100 µM
- TGI (UO-31 renal): > 100 µM
- TGI (DU-145 prostate): > 100 µM
- TGI (HCT-116 colon): > 100 µM
- TGI (BT-549 breast): > 100 µM
- TGI (UACC-62 melanoma): > 100 µM
- TGI (HOP-62 NSCLC): > 100 µM
- TGI (EKVX NSCLC): > 100 µM
- TGI (M14 melanoma): > 100 µM
- TGI (SW-620 colon): > 100 µM
- TGI (SF-539 CNS): > 100 µM
- TGI (SNB-19 CNS): > 100 µM
- TGI (OVCAR-5 ovarian): > 100 µM
- TGI (U251 CNS): > 100 µM
- TGI (HS 578T breast): 87.7 µM
- TGI (OVCAR-8 ovarian): > 100 µM
- TGI (SF-295 CNS): > 100 µM
- TGI (CAKI-1 renal): > 100 µM
- TGI (OVCAR-3 ovarian): > 100 µM
- TGI (COLO 205 colon): > 100 µM
- TGI (SNB-75 CNS): > 100 µM
- TGI (OVCAR-4 ovarian): > 100 µM
- TGI (HCT-15 colon): > 100 µM
- TGI (MDA-MB-435): > 100 µM
- TGI (MDA-N): > 100 µM
- TGI (NCI-H23 lung): > 100 µM
- TGI (SN12C renal): > 100 µM
- TGI (ACHN renal): > 100 µM
- TGI (K-562 leukemia): > 100 µM
- TGI (HT29 colon): > 100 µM
- TGI (RXF 393 renal): > 100 µM
- TGI (UACC-257 melanoma): > 100 µM
- TGI (SK-MEL-28 melanoma): > 100 µM
- TGI (PC-3 prostate): > 100 µM
- TGI (TK-10 renal): > 100 µM
- TGI (SF-268 CNS): > 100 µM
- TGI (A549 NSCLC): > 100 µM
- TGI (MCF7 breast): > 100 µM
- TGI (NCI-H460 lung): > 100 µM
- TGI (SK-OV-3 ovarian): > 100 µM
- TGI (786-0 renal): > 100 µM
- TGI (A498 renal): > 100 µM
- TGI (KM12 colon): > 100 µM
- TGI (SK-MEL-2 melanoma): > 100 µM

Source: PubChem BioAssay (NCI)
